Consider six molecules from patent US20260158020A1, “COMPOSITIONS AND USES THEREOF” (BENEVOLENTAI CAMBRIDGE LIMITED, priority 2020, published 2026).

The conditions of series [1]: cited from earlier work.
The subject of series [2] is other PDE family members. The note with it: cited from earlier work.
Series [3] relates to inflamed colonic mucosa from treatment-refractory ulcerative colitis patients. As to the kind of experiment: Ex-vivo culture of inflamed colon tissue from surgical resection of treatment-refractory UC patients, TNFα release (Method 2). The note with it: colon samples from two treatment-refractory UC patients, with SEB, about 18 h, vs DMSO vehicle; printed 1 M (FIG. 6: 1 μM). In kind it is cell-based, human.

Series [4] relates to isolated human neutrophils. As to the kind of experiment: In vitro assay of IL-8 neutrophil activation. The settings on record: FIG. 3. The format is cell-based.
In series [5] the test system is inflamed colonic mucosa from ulcerative colitis patients. As to the kind of experiment: Ex-vivo culture of colon biopsies from ulcerative colitis patients, cytokine release (Method 1). The settings on record: colon biopsy samples from two UC patients, vs DMSO vehicle, PF-02545920 0.1 and 1 μM, TAK-063 1 μM, FIGS. 4 and 5. The format is cell-based, human. On the procedure:
The effect of selective PDE10 inhibition was tested on inflamed colonic mucosa from ulcerative colitis patients taken during routine endoscopy (Method 1 detailed below). These samples retain a disease phenotype in ex-vivo culture and secrete high basal levels of inflammatory cytokines. The effect of selective PDE10 inhibition on levels of the inflammatory cytokines IL-8 and IL-6 released from these tissue samples was measured.
These colon biopsies retain an inflammatory phenotype and secrete high levels of inflammatory cytokines in ex-vivo culture. […] The doses tested of each inhibitor will result in selective PDE10A inhibition over the other PDE family members.
Biopsy tissue was obtained from inflamed colonic mucosa from ulcerative colitis patients during routine endoscopy. Ex-vivo biopsy cultures for the analysis of inflammatory cytokine biomarkers were run as previously described (Vossenkämper A. et al. A CD3-specific antibody reduces cytokine production and alters phosphoprotein profiles in intestinal tissues from patients with inflammatory bowel disease. Gastroenterology, 2014, 147, 172-183). […] Supernatants collected at the end of the experiment were snap-frozen and stored at −70° C. For the measurement of cytokines, the frozen culture supernatants were thawed and analysed for levels of the inflammatory cytokines using Luminex cytokine assay kits (R&D Systems) and an R&D Systems MAGPIX® analyser. Mean values±SDs were calculated for the levels of spontaneous cytokine production measured in biopsy culture supernatants from each treatment group.

The test system of series [6] is T1, other PDE family members.
T1 construct: other: isolated enzyme biochemical assays; literature (Grauer 2009; Kunitomo 2014)
The note with it: isolated enzyme biochemical assays; literature (Grauer 2009; Kunitomo 2014); read-out: IC50s for other PDE family members; cited from earlier work.

In series [7] the target is T2, PDE10A (Homo sapiens, UniProt Q9Y233). The note with it: cited from earlier work.
T2 sequence (Q9Y233 whole entry): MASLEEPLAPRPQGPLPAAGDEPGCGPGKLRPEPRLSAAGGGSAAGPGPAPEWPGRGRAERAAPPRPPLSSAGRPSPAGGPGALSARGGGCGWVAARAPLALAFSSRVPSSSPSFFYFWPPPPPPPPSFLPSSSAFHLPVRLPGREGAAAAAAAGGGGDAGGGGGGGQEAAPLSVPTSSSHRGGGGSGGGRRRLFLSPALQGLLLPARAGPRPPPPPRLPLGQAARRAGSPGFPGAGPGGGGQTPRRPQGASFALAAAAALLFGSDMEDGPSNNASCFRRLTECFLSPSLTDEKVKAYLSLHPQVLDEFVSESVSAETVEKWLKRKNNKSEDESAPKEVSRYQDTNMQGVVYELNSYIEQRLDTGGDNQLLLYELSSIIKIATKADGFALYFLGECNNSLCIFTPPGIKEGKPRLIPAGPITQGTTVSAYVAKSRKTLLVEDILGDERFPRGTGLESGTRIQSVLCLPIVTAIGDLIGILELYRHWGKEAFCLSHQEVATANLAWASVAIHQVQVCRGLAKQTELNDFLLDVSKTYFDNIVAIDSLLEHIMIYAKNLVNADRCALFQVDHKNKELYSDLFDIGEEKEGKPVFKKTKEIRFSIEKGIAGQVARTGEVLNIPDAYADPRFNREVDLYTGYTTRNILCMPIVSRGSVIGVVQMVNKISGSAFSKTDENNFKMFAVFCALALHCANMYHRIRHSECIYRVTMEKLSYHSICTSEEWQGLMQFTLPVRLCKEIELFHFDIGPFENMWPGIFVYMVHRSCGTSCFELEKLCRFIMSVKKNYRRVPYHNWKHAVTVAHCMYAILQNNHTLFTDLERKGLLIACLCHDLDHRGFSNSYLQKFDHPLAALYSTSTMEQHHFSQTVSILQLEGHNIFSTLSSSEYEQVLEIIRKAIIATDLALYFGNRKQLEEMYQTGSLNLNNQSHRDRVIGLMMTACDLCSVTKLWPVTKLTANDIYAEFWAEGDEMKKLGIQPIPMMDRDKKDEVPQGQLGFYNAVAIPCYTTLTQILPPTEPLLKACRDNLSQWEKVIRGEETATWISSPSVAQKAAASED
In series [8] the target is T2, PDE10A. The note with it: read-out: binding affinity (Kd) PDE10A; cited from earlier work.
Series [9] concerns animals, conditioned avoidance response model. The settings on record: cited from earlier work.
The conditions of series [10]: oral, rodents; cited from earlier work.
In the next series the test system is rats. The settings on record: cited from earlier work.
Series [11] deals with rodents with induced memory deficits. The settings on record: oral, 0.1 to 3 mg/kg; cited from earlier work.
Another series concerns the target T3, rat PDE10 (Rattus norvegicus, UniProt Q9QYJ6).
T3 sequence (Q9QYJ6 1-794): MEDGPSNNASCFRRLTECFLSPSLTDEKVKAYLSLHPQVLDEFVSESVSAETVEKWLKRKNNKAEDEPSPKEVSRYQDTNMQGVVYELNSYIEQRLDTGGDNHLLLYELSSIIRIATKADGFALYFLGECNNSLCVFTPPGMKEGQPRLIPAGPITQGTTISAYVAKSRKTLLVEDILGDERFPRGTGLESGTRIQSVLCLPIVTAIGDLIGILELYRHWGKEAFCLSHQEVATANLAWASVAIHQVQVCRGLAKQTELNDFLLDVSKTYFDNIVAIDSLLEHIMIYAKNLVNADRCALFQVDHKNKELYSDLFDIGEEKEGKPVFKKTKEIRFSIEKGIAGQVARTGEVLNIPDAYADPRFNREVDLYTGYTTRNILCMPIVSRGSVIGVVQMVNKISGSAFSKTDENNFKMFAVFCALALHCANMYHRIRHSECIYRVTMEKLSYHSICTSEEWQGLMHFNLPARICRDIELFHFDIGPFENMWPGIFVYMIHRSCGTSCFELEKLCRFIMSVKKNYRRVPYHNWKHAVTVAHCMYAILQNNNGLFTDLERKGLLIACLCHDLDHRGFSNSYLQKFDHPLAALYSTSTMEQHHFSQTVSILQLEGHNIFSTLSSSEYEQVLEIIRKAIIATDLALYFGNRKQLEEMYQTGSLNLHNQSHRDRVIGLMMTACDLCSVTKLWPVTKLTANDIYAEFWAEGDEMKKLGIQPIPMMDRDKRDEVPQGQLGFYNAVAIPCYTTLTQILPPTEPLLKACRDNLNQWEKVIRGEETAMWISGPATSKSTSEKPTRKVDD
The settings on record: cited from earlier work.

In the next series the target is human PDE10 (Homo sapiens, UniProt Q9Y233). The settings on record: cited from earlier work.
Chain of human PDE10 (Q9Y233 whole entry): as the sequence (Q9Y233 whole entry) above
The test system of series [12] is rat models relevant to schizophrenia. The note with it: 0.1-0.3 mg/kg; cited from earlier work.
The test system is the same in series [13]. The note with it: 0.1-0.3 mg/kg; cited from earlier work. This is another data set of the same source.

Like-named read-outs stand apart in the source and are kept apart here.

As to `CC(=O)N1CCC(c2nccnc2Oc2ccc(C(=O)c3nc4ccccc4[nH]3)cc2)CC1` [AMG-579, 1-[4-[3-[4-(1H-benzimidazole-2-carbonyl)phenoxy]pyrazin-2-yl]piperidin-1-yl]ethanone], the oral bioavailability entry in [1] is “orally bioavailable”. The IC50 with other PDE family members [2] (read-out: IC50 against all other PDE isoforms) was above 30000 nM.
Turning to `Cn1cc(-c2ccncc2)c(-c2ccc(OCc3ccc4ccccc4n3)cc2)n1` [PF-02545920, 2-[[4-(1-methyl-4-pyridin-4-ylpyrazol-3-yl)phenoxy]methyl]quinolone], the “secreted levels of TNFα” value in series [3] is recorded as “significantly reduced”. Moreover, the “IL-8 induced neutrophil activation” value in series [4] is “dose dependently inhibited”. For the same molecule, in series [5], the “secreted levels of IL-6” value is listed as “significantly reduced” and the “secreted levels of IL-8” value is given as “significantly reduced”. For the same molecule, the IC50 in the series with other PDE family members [6] is above 1000 nM.
The term Kd denotes the equilibrium constant for the complex coming apart. On to `CCNC(=O)c1sc(Nc2nc(Cl)cc(NCc3cccnc3)n2)nc1C` [BMS-843496, 2-((4-chloro-6-((pyridin-3-ylmethyl)amino)pyrimidin-2-yl)amino)-N-ethyl-4-methylthiazole-5-carboxamide], for which, on PDE10A [7], the IC50 is 2.11 nM. Besides, the dissociation constant Kd on PDE10A [8] is 0.15 nM. Also, the “antipsychotic effects, conditioned avoidance response model” value in series [9] was “correlated with antipsychotic effects”. Besides, the “selectivity over other PDE families / family members / phosphodiesterases” value in the series with other PDE family members [2] is listed as above 100 fold.
With `COc1cn(-c2ccc(-n3cccn3)cc2F)nc(-c2ccnn2-c2ccccc2)c1=O` [TAK-063, 1-(2-fluoro-4-pyrazol-1-ylphenyl)-5-methoxy-3-(2-phenylpyrazol-3-yl)pyridazin-4-one], in series [5], the “secreted levels of IL-6” value is listed as “significantly reduced” and the “secreted levels of IL-8” value was “significantly reduced”. For the same molecule, in the series on other PDE family members [6], the IC50 was above 5000 nM.
In the case of `COc1cc2ncnc(N3CC[C@@H](Oc4cnc5ccccc5n4)C3)c2cc1OC` [PQ-10, 6,7-dimethoxy-4-[(3R)-3-quinoxalin-2-yloxypyrrolidin-1-yl]quinazoline], the brain penetration entry in series [10] is reported as “highly brain penetrant”. In addition, the “basic auditory information processing” value in the series with rats is “enhances”. For the same molecule, the induced memory defects result in series [11] is listed as “reversed”.
Turning to `Cc1ncc(C)n2nc(/C=C/c3nc(N4CCCC4)cc(N4CCOCC4)n3)nc12` [PDM-042, (E)-4-(2-(2-(5,8-dimethyl-[1,2,4]triazolo[1,5-a]pyrazin-2-yl)vinyl)-6-(pyrrolidin-1-yl)pyrimidin-4-yl) morpholine], the IC50 on rat PDE10 was below 1 nM. Also, the IC50 on human PDE10 is below 1 nM. Also, in [12], the conditioned avoidance response result is listed as “attenuated”. In series [13], the MK-801-induced hyperlocomotion entry is given as “significantly antagonized” and the spontaneous locomotor activity entry was “without affecting”. Further, the “selectivity over other PDE families / family members / phosphodiesterases” value in the series with other PDE family members [2] is “more than 1000 fold”.
